Patent publication US9321808B2, “Homo- and heterodimeric SMAC mimetic compounds as apoptosis inducers” (BioNTech AG, priority 2012, dated 2016)
Read-outs that look alike come from different tables or passages of the source.

What was measured:
[1] = test system: MDA-MB-231 (breast epithelial adenocarcinoma); experiment: Standalone cytotoxicity, MTT assay, MDA-MB-231; format: cell-based, human; details: Homo sapiens, MDA-MB-231, 96 hours treatment, reported as activity range, read-out: MDA-MB-231 IC50 (μM ± standard Deviation)
Protocol: (§1) Human cell lines MDA-MB-231 (breast epithelial adenocarcinoma), HL-60 (promieloblast cells) and PC-3 (prostate adenocarcinoma cells) were purchased from Istituto Zooprofilattico di Brescia (www.bs.izs.it). Reagents for cell culture were purchased from Sigma, unless otherwise indicated. Cells were grown on Plastic Petri dishes (Falcon) in RPMI 1640 medium supplemented with 2 mM L-glutamine, Penicillin (100 U/mL)/Streptomicin (100 μg/mL), 10% Fetal Bovine Serum. A sub-cultivation ratio of 1:4 was used. Cells were maintained at 37° C. in an atmosphere of 95% air and 5% CO2.
(§2) Cells were seeded in 96-well flat bottom cell culture plates at a density of 5000 cells/well in 100 μL of culture medium. HL-60 cells were immediately stimulated with the indicated compounds for 96 hours in the incubator. MDA-MB-231 and PC-3 cells were allowed to adhere for 24 hours. prior to be exposed to the compounds for 96 hours in the incubator. Cells were exposed to the following concentrations of the compounds: 50 nM, 100 nM, 200 nM, 500 nM, 1 μM, 5 μM, 10 μM, 50 μM and 100 μM. Each point was done in triplicate. The cellular growth inhibitory effect of our compounds was evaluated using the MTT assay (Sigma). After 96 hours of treatment, 10 μL of MTT reagent solution (5 mg of MTT powder/mL diluted in Phosphate Buffer Salt saline solution) were added in each well and allowed to react for 3 hours in the incubator. After 3 hours cells were solubilized in Lysis Buffer (10% SDS/0.1% HCl in water, 100 μL for each well) for 24 hours at 37° C. Finally, the absorbance was measured at 570 nm using a multiplate reader. Absorbance values were collected and IC50 values were determined using GraphPad Prism5 software. The experiments were repeated twice.
(§3) After 96 hours of treatment, 10 μl of MTT reagent solution (5 mg of MTT powder/ml diluted in Phosphate Buffer Salt saline solution) were added in each well and allowed to react for 3 hours in the incubator. After 3 hours cells were solubilized in Lysis Buffer (10% SDS/0.1% HCl in water, 100 μl for each well) for 24 hours at 37° C. Finally, the absorbance was measured at 570 nm using a multiplate reader. Absorbance values were collected and IC50/IC80 values were determined using GraphPad Prism5 software.

[2] = target: T1, cIAP2-BIR3 (Homo sapiens, UniProt Q13489); experiment: Fluorescence polarization binding, cIAP2 BIR3
T1 construct: 6xHis (C); made in house; host or cells: Escherichia coli BL21(DE3)
T1 sequence (Q13489 237-349): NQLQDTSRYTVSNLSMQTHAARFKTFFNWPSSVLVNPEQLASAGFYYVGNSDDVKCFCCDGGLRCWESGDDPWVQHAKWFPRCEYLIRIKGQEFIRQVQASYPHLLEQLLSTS
Protocol: The plasmids were used to transform Escherichia coli strain BL21(DE3). The recombinant proteins were purified using Ni-NTA (His-trap FFcrude, Ge-Healthcare), followed by gel filtration (Superdex 200, Ge-Healthcare). The recombinant proteins were eluted in 20 mM Tris pH 8.0, 250 mM NaCl and 10 mM DTT. Aliquoted proteins were conserved at −80° C.
The fluorescently-labelled Smac peptide (AbuRPF-K(5-Fam)-N1-12, final concentration of 2 nM), and increasing concentrations of cIAP1- and cIAP2-BIR3 from 0 to 20 μM, were added to an assay buffer consisting of 100 mM potassium phosphate, pH 7.5, 100 μg/ml bovine γ-globulin, 0.02% sodium azide. […] All experiments were performed in black, flat-bottom 96-well microplates (Greiner bio-one). 4-substituted azabicyclo[5.3.0]alkane Smac-mimetics were evaluated for their ability to displace the fluorescent probe from recombinant protein. […] After 15 minutes mixing on a shaker, and 3 hours incubation at room temperature, fluorescent polarization was measured on the Ultra plate reader (Tecan).

[3] = test system: HL-60 (promieloblast cells); experiment: Standalone cytotoxicity, MTT assay, HL-60; format: cell-based, human; details: Homo sapiens, HL-60, 96 hours treatment, reported as activity range, read-out: HL-60 IC50 (μM ± standard Deviation)
Protocol: as §1
as §2, with “The experiments were repeated twice.” left out
as §3, with “After 3 hours cells were solubilized in Lysis Buffer (10% SDS/0.1% HCl in water, 100 μl for each well) for 24 hours at 37° C.” left out

[4] = test system: PC-3 (prostate adenocarcinoma cells); experiment: Standalone cytotoxicity, MTT assay, PC-3; format: cell-based, human; details: Homo sapiens, 96 hours treatment, reported as activity range, read-out: PC-3 IC50 (μM ± standard Deviation)
Protocol: as §1
as §2, with “The experiments were repeated twice.” left out
as §3, with “After 3 hours cells were solubilized in Lysis Buffer (10% SDS/0.1% HCl in water, 100 μl for each well) for 24 hours at 37° C.” left out

[5] = test system: IGROV-1 human ovarian carcinoma xenografted s.c.; details: i.p., 5 mg/Kg, qdx5/wx3; IGROV-1 s.c.
Protocol: All experiments of antitumor activity were carried out using female athymic Swiss nude mice, 8-10 weeks-old (Charles River, Calco, Italy). Mice were maintained in laminar flow rooms keeping temperature and humidity constant. Mice had free access to food and water. Experiments were approved by the Ethics Committee for Animal Experimentation of the Istituto Nazionale Tumori of Milan according to institutional guidelines.
Chem. Soc. […] The drugs were delivered i.p. in a volume of 10 ml/Kg of body weight.
For subcutaneous (s.c.) growth, exponentially growing tumor cells (5×10^6 cells/mouse) were s.c. injected into the right flank of athymic nude mice. The tumor line was achieved by serial s.c. passages of fragments (about 2×2×6 mm) from regrowing tumors into healthy mice. Groups of five mice bearing bilateral s.c. tumors were employed. Tumor fragments were implanted on day 0 and tumor growth was followed by biweekly measurements of tumor diameters with a Vernier caliper. […] Treatment started three days after tumor implant, when tumors were just palpable. […] The toxicity of the drug treatment was determined as body weight loss and lethal toxicity. Deaths occurring in treated mice before the death of the first control mouse were ascribed to toxic effects. Student t test (two tailed) exact test was used for statistical comparison of tumor volumes in mice.

[6] = displacement of fluorescent probe (2 nM) from cIAP2 (25 nM), average of three independent measurements, read-out: cIAP2 IC50(av)

| SMILES | IC50 [1] | IC50 [2] | other results |
| --- | --- | --- | --- |
| CC[C@H](NC)C(=O)N[C@@H]1C(=O)N2[C@@H](CC[C@@H]1CO)CC[C@H]2C(=O)N[C@H](C(=O)NCCCOCCOCCOCCCNC(=O)[C@@H](NC(=O)[C@@H]1CC[C@@H]2CC[C@H](CO)[C@H](NC(=O)[C@H](CC)NC)C(=O)N21)c1ccccc1)c1ccccc1 [Compound 30d] | 10 to 50 µM | – | IC50 [2, 6]: 2.2 nM; IC50 [3]: 10 to 50 µM; IC50 [4]: > 50 µM |
| CC[C@H](NC)C(=O)N[C@@H]1C(=O)N2[C@@H](CC[C@@H]1CO)CC[C@H]2C(=O)N[C@H](C(=O)NCCNC(=O)CCC#CC#CCCC(=O)NCCNC(=O)[C@@H](NC(=O)[C@@H]1CC[C@@H]2CC[C@H](CO)[C@H](NC(=O)[C@H](CC)NC)C(=O)N21)c1ccccc1)c1ccccc1 [Compound 30c] | 10 to 50 µM | – | – |
| CN[C@@H](C)C(=O)N[C@H]1CCCC[C@H]2CC[C@@H](C(=O)N[C@@H](c3ccccc3)c3cn(CCCCc4ccc(CCCCn5cc([C@@H](NC(=O)[C@@H]6CC[C@@H]7CCCC[C@H](NC(=O)[C@H](C)NC)C(=O)N76)c6ccccc6)nn5)cc4)nn3)N2C1=O [SM-164, reference compound] | – | – | Antitumor effect [5]: did not display any antitumor effect |
| CC[C@H](NC)C(=O)N[C@@H]1C(=O)N2[C@@H](CC[C@@H]1CO)CC[C@H]2C(=O)N[C@H](C(=O)NCCCCCCCCNC(=O)[C@@H](NC(=O)[C@@H]1CC[C@@H]2CC[C@H](CO)[C@H](NC(=O)[C@H](CC)NC)C(=O)N21)c1ccccc1)c1ccccc1 [Compound 30a] | < 1 µM | 1.8 nM | – |
| CC[C@H](NC)C(=O)N[C@@H]1C(=O)N2[C@@H](CC[C@@H]1CNCc1ccccc1)CC[C@H]2C(=O)N[C@@H](c1ccccc1)c1cn(CCCCc2ccc(CCCCn3cc([C@@H](NC(=O)[C@@H]4CC[C@@H]5CC[C@H](CNCc6ccccc6)[C@H](NC(=O)[C@H](CC)NC)C(=O)N54)c4ccccc4)nn3)cc2)nn1 [Compound 29a] | < 1 µM | 12.1 nM | – |
| CC[C@H](NC)C(=O)N[C@@H]1C(=O)N2[C@@H](CC[C@@H]1CNC(=O)COCC(=O)NCCOCCOCCOCCNC(=O)[C@@H](NC(=O)[C@@H]1CC[C@@H]3CC[C@H](CO)[C@H](NC(=O)[C@H](CC)NC)C(=O)N31)c1ccccc1)CC[C@H]2C(=O)NC(c1ccccc1)c1ccccc1 [Compound 36a] | 1 to 10 µM | – | IC50 [2, 6]: 0.2 nM |
| CC[C@H](NC)C(=O)N[C@@H]1C(=O)N2[C@@H](CC[C@@H]1Cn1cc(CCC(=O)NCCOCCOCCOCCNC(=O)[C@@H](NC(=O)[C@@H]3CC[C@@H]4CC[C@H](CO)[C@H](NC(=O)[C@H](CC)NC)C(=O)N43)c3ccccc3)nn1)CC[C@H]2C(=O)NC(c1ccccc1)c1ccccc1 [Compound 35a] | 1 to 10 µM | 0.4 nM | – |
